From patent US12049483B2, “Selective and noncovalent inhibitors of oncogenic RAS mutants” (New York University, priority 2020, dated 2024) come the findings set out here.

One experiment concerns the target T1, KRAS(WT) (Homo sapiens, UniProt P01116).
T1 construct: KRAS4B residues 1-174 containing G12C, G12V, G12D, G13D, Q61L, WT; made in house; host or cells: E. coli BL21(DE3) with pBirA
Description: Yeast display binding titration, KRAS(WT). To be noted: either nucleotide-bound form. Here is the method:
(§1) Nucleotide exchange of RAS. Purified RAS proteins used in binding experiment and crystallization were prepared by diluting stock protein (typically containing 20-250 μM RAS) 25 times with 20 mM Tris-Cl buffer pH 7.5 containing 5 mM EDTA, 0.1 mM DTT and 1 mM final concentration of a nucleotide (GDP or GTPγS). Samples were incubated at 30° C. for 30 minutes. MgCl2 was then added to the sample at a final concentration of 20 mM and the solution was further incubated on ice for at least 5 minutes prior to use.
(§2) Monobody development. General procedures for the development of monobodies against purified protein targets have been described previously. After four rounds of phage display library selection using biotinylated KRAS(G12C) at concentrations of 100 nM, 100 nM, 50 nM and 50 nM, the genes encoding monobodies from the enriched phage pool were transferred to a yeast display vector, which was used to construct yeast-display libraries. The yeast display libraries were sorted using a Bio-Rad S3e fluorescence-activated cell sorter or a […] II cell sorter (BD Biosciences). […] Single clones were then screened for selective binding to RAS mutants. The expression of monobodies on the surface of yeast cells were detected using mouse anti-VS and anti-mouse IgG-FITC conjugate. Target binding was detected with neutravidin Dylight650. Yeast cells were analyzed using an iQue flow cytometer (Sartorius). […]

In the next experiment the test system is PATU8902 tumors. Description: Mouse xenograft model, PATU8902. The class given is in vivo. To be noted: subcutaneous PATU8902 in nude mice; dox-induced expression after tumor size exceeded 100 mm^3. As for the experimental part:
Mouse xenograft experiments. Animal experiments were approved by NYU Langone Institutional Animal Care and Use Committee (IACUC, protocol 170602). PATU8902 or H23 cells expressing monobody under a dox-inducible promotor (5×10^6) were subcutaneously injected into athymic nude mice (Charles River). Once the average tumor size exceeded 100 mm^3, the mice were given food containing doxycycline (Envigo; TD.01306). Tumor sizes were measured using a digital caliper thrice a week along with body weight to ensure that mice were healthy through the duration of doxycycline treatment.

For experiment [1], the system named is endogenous KRAS from PATU8902 (KRAS(G12V)) and H358 (KRAS(G12C)). Description: Pull-down assay with biotinylated 12VC1 from cell lysates. It is filed as binding. To be noted: PATU8902 and H358 lysates vs growth factor stimulated HEK293T (wild-type RAS). Here is the method: Pull-down assays. H358, PATU8902, and HEK293T cells were cultured in 10 cm plates (Corning, #430167). H358 and PATU8902 cells were treated with and without ARS1620 (SelleckChem, 58707) at a final concentration of 10 μM for 1.5 hours, and HEK293T cells were treated with EGF (PeproTech; AF-100-15) at a final concentration of 50 ng/mL for 4 minutes. Cells were lysed by incubating them on ice for 15 minutes in GTPase lysis buffer (25 mM Tris-Cl pH 7.2, 150 mM NaCl, 5 mM MgCl2, 1% NP-40 and 5% glycerol supplemented with protease tablet (Roche, 5892991001) and phosphatase inhibitors (1 mM sodium orthovanadate, 10 mM NAF, 54 mM β-glycerol phosphate)) immediately before analysis. After centrifugation for 15 minutes at 15,000 g, the supernatants were collected and incubated with SA agarose resins (Thermo Fisher Scientific) for 1 hour at 4° C. to remove non-specific binders to the resins. After the removal of resins via centrifugation, the pre-cleared lysates were then incubated with biotinylated monobodies bound to SA agarose resins for 3 hours at 4° C. while rotating. The agarose resins were then washed twice with the GTPase lysis buffer and boiled in 1×SDS buffer with 37.5 mM β-mercaptoethanol and processed for Western blotting using a pan-RAS antibody (Santa Cruz Biotechnology, C-4).

Another experiment has as its target T2, KRAS(G12D) (Homo sapiens, UniProt P01116, G12D).
T2 construct: KRAS4B residues 1-174 containing G12C, G12V, G12D, G13D, Q61L, WT; made in house; host or cells: E. coli BL21(DE3) with pBirA
Description: Yeast display binding titration, KRAS(G12D). To be noted: GTPγS and GDP bound states. As for the experimental part: as §1, §2

“VSSVPTKLEVVAATPTSLLISWDAPAVTVFFYVITYGETGHGVGAFQAFKVPGSKSTATISGLKPGVDYTITVYARGYSKQGPYKPSPISINYRT [12VC1]”: the binding result at KRAS(WT) is recorded as “did not detectably bind”; at KRAS(G12D), “no binding”. For the same sequence, in the experiment on PATU8902 tumors, the tumor growth result was “significantly reduced tumor growth”. Also, the “capture of endogenous KRAS in pull-down” value in experiment [1] is reported as “selectively captured endogenous KRAS”.
